Laboratory results published in patent publication US8980934B2, “Kinase inhibitors and method of treating cancer with same” (University Health Network, priority 2012, dated 2015).

Tests used:
Format in all cases: cell-based
[1] = tested on: HCT116 colon cancer cells; experiment: Cancer cell growth inhibition, Sulforhodamine B assay; settings: Homo sapiens, HCT-116, 120 h; HCT116, 5 days culture, SRB; read-out: Cancer Cell Line GI50 Range HCT116
Description: (§1) Breast cancer cells (MDA-MB-231), colon cancer cells (HCT116) and ovarian cancer cells (PA-1) were seeded (1000 to 4000 in 80 μl per well depending on the cell growth rate) into 96 well plates 24 hours before compound overlay. Compounds were prepared as 10 mM stock solutions in 100% DMSO which were diluted with DMEM (Dulbecco's Modified Eagle's Medium) cell growth Medium (Invitrogen, Burlington, ON, Canada) containing 10% FBS (Fetal Bovine Serum) to concentrations ranging from 50 nM to 250 μM. Aliquots (20 μl) from each concentration were overlaid to 80 μl of the pre-seeded cells in the 96 well plates to make final concentrations of 10 nM to 50 μM. The cells were cultured for 5 days before the Sulforhodamine B assay (SRB) was performed to determine the compound's cell growth inhibition activity.
(§2) Sulforhodamine B (purchased from Sigma, Oakville, ON, Canada) is a water-soluble dye that binds to the basic amino acids of the cellular proteins. Thus, colorimetric measurement of the bound dye provides an estimate of the total protein mass that is related to the cell number. the cells are fixed in situ by gently aspirating off the culture media and adding 50 μl ice cold 10% Trichloroacetic Acid (TCA) per well and incubate at 4° C. for 30-60 min. The plates are washed with H2O five times and allowed to air dry for 5 min. Addition of 50 μl 0.4% (w/v) SRB solution in 1% (v/v) acetic acid to each well and incubatation for 30 min at RT completes the staining reaction. Following staining, plates are washed four times with 1% acetic acid to remove unbound dye and then allowed to air dry for 5 min. The stain is solubilized with 100 μl of 10 mM Tris pH 10.5 per well. Absorbance is read at 570 nm.
(§3) The percentage (%) of relative growth inhibition was calculated by comparing to DMSO treated only cells (100%). GI50's were determined for compounds with cytotoxic activity. The GI50 was calculated using GraphPad PRISM software (GraphPad Software, Inc., San Diego, Calif., USA). GI50 (growth inhibition) is the compound concentration that causes 50% inhibition of cell growth.
(§4) In Table 1 below, GI50 value ranges for several compound examples against breast cancer cell lines (MDA-MB-231), colon cancer cell lines (HCT116) and ovarian cancer cell lines (PA-1) are given. […] The GI50 ranges are indicated as “A,” “B,” and “C,” for values less than or equal to 0.1 μM; those greater than 0.1 μM and less than or equal to 0.5 μM; and those greater than 0.5 μM, respectively.

[2] = tested on: MDA-MB-231 breast cancer cells; experiment: as above; settings: Homo sapiens, 120 h; MDA-MB-231, 5 days culture, SRB; read-out: Cancer Cell Line GI50 Range MDA-MB-231
Description: as §1, §2, §3, §4

[3] = tested on: PA-1 ovarian cancer cells; experiment: as above; settings: 120 h; PA-1, 5 days culture, SRB; read-out: Cancer Cell Line GI50 Range PA-1
Description: as §1, §2, §3, §4

[4] = tested on: colon 12 tumor initiating cells; experiment: Colon tumor-initiating cell growth inhibition, Alamar Blue assay; settings: 216 h, colon TICs, 9 days culture, read-out: Tumor Initiating Cell Line GI50 Range colon 12
Text: (§5) Non-tissue or tissure cultured treated T-75 flask and 96-well plates were purchased from VWR. Vitamin B-27 supplement, MEM NEAA (minimum essential medium non essential amino acids), sodium pyruvate, L-glutamine, N2 supplement, penicillin-streptomycin and fungizone/amphotericin B were obtained from Invitrogen. Lipid mixture, heparin and EGF were purchased from Sigma; bFGF from BD Biosciences. Colon tumor initiating cells (TICs) were routinely maintained using non-tissue cultured treated T-75 flasks in DMEM:F12 medium containing 0.2XB-27 supplement, 4 ug/ml heparin, 1XMEM NEAA, 1Xsodium pyruvate, 1 mM glutamine, 10 pg/ul bFGF, 20 pg/ul EGF, 1×N2 supplement, lipid mixture, penicillin-streptomycin and fungizone/amphotericin B. Ovarian TICs were routinely maintained using tissue cultured treated T-75 flasks in DMEM:F12 medium containing 1XB-27 supplement, 4 ug/ml heparin, 20 pg/ul bFGF, 20 pg/ul EGF and penicillin-streptomycin.
(§6) Compounds described herein were dissolved in DMSO and further diluted in cell culture medium for GI50 determination. Colon TICs were trypsinized and seeded into non-tissue cultured treated 96-well plates with 4,000 cells/well. After 24 h, compound was added into the cell culture at different concentrations, and the final concentration of DMSO was adjusted to 0.1%. Cells were then cultured at 37° C. for 9 days. Ovarian TICs were trypsinized and seeded into tissue cultured treated 96-well plates with 1,000 cells/well. After 24 h, compound was added into the cell culture at different concentrations, and the final concentration of DMSO was adjusted to 0.1%. Cells were then cultured at 37° C. for 6 days. Cell viability was assessed by Alamar Blue assay: 10 ul of Alamar Blue was added into each well. After 4 hours incubation at 37° C., fluorescence was recorded at excitation 544 and emission 590. GI50 (Growth inhibition) was calculated using GraphPad Prism 4.0 software. Cell growth inhibition data for compounds described herein is tabulated below (Table 2). The GI50 ranges are indicated as “A,” and “B”, for values less than or equal to 0.1 μM: those greater than 0.1 μM and less than or equal to 0.5 μM, respectively.

[5] = tested on: ovarian 2393A tumor initiating cells; experiment: Ovarian tumor-initiating cell growth inhibition, Alamar Blue assay; settings: 144 h, ovarian TICs, 6 days culture, read-out: Tumor Initiating Cell Line GI50 Range ovarian 2393A
Text: as §5, §6

Cc1ccccc1C(NC(=O)c1ccc2[nH]nc(-c3ccc(N4CC5(COC5)C4)cc3)c2c1)C1CC1 (stereo not drawn) [Example A3, 3-(4-(2-Oxa-6-azaspiro[3.3]heptan-6-yl)phenyl)-N-(cyclopropyl(o-tolyl)methyl)-1H-indazole-5-carboxamide]
GI50 [1]: ≤ 100 nM
GI50 [2]: 100 to 500 nM
GI50 [3]: ≤ 100 nM
GI50 [4]: ≤ 100 nM
GI50 [5]: 100 to 500 nM

O=C(N[C@H](c1ccccn1)C1CC1)c1ccc2[nH]nc(-c3ccc(N4CC5(COC5)C4)cc3)c2c1 [Example A5, (S)-3-(4-(2-Oxa-6-azaspiro[3.3]heptan-6-yl)phenyl)-N-(cyclopropyl(pyridin-2-yl)methyl)-1H-indazole-5-carboxamide]
GI50 [1]: ≤ 100 nM
GI50 [2]: ≤ 100 nM
GI50 [3]: ≤ 100 nM
GI50 [4]: 100 to 500 nM
GI50 [5]: ≤ 100 nM

O=C(NC(c1ccccn1)C1CC1)c1ccc2[nH]nc(-c3ccc(N4CCC5(CC4)COC5)cc3)c2c1 (stereo not drawn) [Example A15, 3-(4-(2-Oxa-7-azaspiro[3.5]nonan-7-yl)phenyl)-N-(cyclopropyl(pyridin-2-yl)methyl)-1H-indazole-5-carboxamide]
GI50 [1]: ≤ 100 nM
GI50 [2]: 100 to 500 nM
GI50 [3]: ≤ 100 nM
GI50 [4]: 100 to 500 nM
GI50 [5]: 100 to 500 nM

O=C(NC(c1ncccn1)C1CCCC1)c1ccc2[nH]nc(-c3ccc(N4CC5(COC5)C4)cc3)c2c1 (stereo not drawn) [Example A24, 3-(4-(2-oxa-6-azaspiro[3.3]heptan-6-yl)phenyl)-N-(cyclopentyl(pyrimidin-2-yl)methyl)-1H-indazole-5-carboxamide]
GI50 [1]: ≤ 100 nM
GI50 [2]: ≤ 100 nM
GI50 [3]: ≤ 100 nM
GI50 [4]: ≤ 100 nM
GI50 [5]: ≤ 100 nM

O=C(Nc1ccc2[nH]nc(-c3ccc(N4CC5(COC5)C4)cc3)c2c1)C(c1ccsc1)N1CCCC1 (stereo not drawn) [Example A1, N-(3-(4-(2-oxa-6-azaspiro[3.3]heptan-6-yl)phenyl)-1H-indazol-5-yl)-2-(pyrrolidin-1-yl)-2-(thiophen-3-yl)acetamide]
GI50 [1]: ≤ 100 nM
GI50 [2]: ≤ 100 nM
GI50 [3]: ≤ 100 nM
GI50 [4]: ≤ 100 nM
GI50 [5]: ≤ 100 nM

O=C(N[C@H](c1ccccn1)C1CCCC1)c1ccc2[nH]nc(-c3ccc(N4CC5(CCO5)C4)cc3)c2c1 [Example A20, (S)-3-(4-(1-oxa-6-azaspiro[3.3]heptan-6-yl)phenyl)-N-(cyclopentyl(pyridin-2-yl)methyl)-1H-indazole-5-carboxamide]
GI50 [1]: ≤ 100 nM
GI50 [2]: ≤ 100 nM
GI50 [3]: ≤ 100 nM
GI50 [4]: ≤ 100 nM
GI50 [5]: ≤ 100 nM

O=C(N[C@H](c1ccccn1)C1CCCC1)c1ccc2[nH]nc(-c3ccc(N4CC5(COC5)C4)cc3)c2c1 [Example A2, (S)-3-(4-(2-oxa-6-azaspiro[3.3]heptan-6-yl)phenyl)-N-(cyclopentyl(pyridin-2-yl)methyl)-1H-indazole-5-carboxamide]
GI50 [1]: ≤ 100 nM
GI50 [2]: ≤ 100 nM
GI50 [3]: ≤ 100 nM
GI50 [4]: ≤ 100 nM
GI50 [5]: ≤ 100 nM

CC(C)[C@H](NC(=O)c1ccc2[nH]nc(-c3ccc(N4CC5(CCO5)C4)cc3)c2c1)c1ccccc1Cl [Example A23, (S)-3-(4-(1-Oxa-6-azaspiro[3.3]heptan-6-yl)phenyl)-N-(1-(2-chlorophenyl)-2-methylpropyl)-1H-indazole-5-carboxamide]
GI50 [1]: ≤ 100 nM
GI50 [2]: ≤ 100 nM
GI50 [3]: ≤ 100 nM
GI50 [4]: ≤ 100 nM
GI50 [5]: ≤ 100 nM

O=C(N[C@H](c1ccccn1)C1CC1)c1ccc2[nH]nc(-c3ccc(N4CC5(CCOCC5)C4)cc3)c2c1 [Example A18, (S)-3-(4-(7-Oxa-2-azaspiro[3.5]nonan-2-yl)phenyl)-N-(cyclopropyl(pyridin-2-yl)methyl)-1H-indazole-5-carboxamide]
GI50 [1]: ≤ 100 nM
GI50 [2]: ≤ 100 nM
GI50 [3]: ≤ 100 nM
GI50 [4]: ≤ 100 nM
GI50 [5]: 100 to 500 nM

O=C(N[C@H](c1ccccc1)C1CC1)c1ccc2[nH]nc(-c3ccc(N4CC5(COC5)C4)cc3)c2c1 [Example A10, 3-(4-(2-Oxa-6-azaspiro[3.3]heptan-6-yl)phenyl)-N-((S)-cyclopropyl(phenyl)methyl)-1H-indazole-5-carboxamide]
GI50 [1]: ≤ 100 nM
GI50 [2]: 100 to 500 nM
GI50 [3]: ≤ 100 nM
GI50 [4]: ≤ 100 nM
GI50 [5]: 100 to 500 nM

O=C(NC(c1ccccn1)C1CCCC1)c1ccc2[nH]nc(-c3ccc(N4CC5(COC5)C4)cc3)c2c1 (stereo not drawn) [Example A7, 3-(4-(2-Oxa-6-azaspiro[3.3]heptan-6-yl)phenyl)-N-(cyclopentyl(pyridin-2-yl)methyl)-1H-indazole-5-carboxamide]
GI50 [1]: ≤ 100 nM
GI50 [2]: ≤ 100 nM
GI50 [3]: ≤ 100 nM
GI50 [4]: ≤ 100 nM
GI50 [5]: ≤ 100 nM

CC(C)[C@H](NC(=O)c1ccc2[nH]nc(-c3ccc(N4CC5(CC(O)C5)C4)cc3)c2c1)c1ccccc1Cl [Example A32, (S)-N-(1-(2-Chlorophenyl)-2-methylpropyl)-3-(4-(6-hydroxy-2-azaspiro[3.3]heptan-2-yl)phenyl)-1H-indazole-5-carboxamide]
GI50 [1]: ≤ 100 nM
GI50 [2]: ≤ 100 nM
GI50 [3]: ≤ 100 nM
GI50 [4]: ≤ 100 nM
GI50 [5]: ≤ 100 nM

O=C(NC(c1ccccn1)C1CC1)c1ccc2[nH]nc(-c3ccc(N4CC5(COC5)C4)cc3)c2c1 (stereo not drawn) [Example A4, 3-(4-(2-Oxa-6-azaspiro[3.3]heptan-6-yl)phenyl)-N-(cyclopropyl(pyridin-2-yl)methyl)-1H-indazole-5-carboxamide]
GI50 [1]: ≤ 100 nM
GI50 [2]: ≤ 100 nM
GI50 [3]: ≤ 100 nM
GI50 [4]: 100 to 500 nM
GI50 [5]: ≤ 100 nM

CC(C)[C@H](NC(=O)c1ccc2[nH]nc(-c3ccc(N4CC5(COC5)C4)cc3)c2c1)c1ccccc1Cl [Example A12, 3-(4-(2-Oxa-6-azaspiro[3.3]heptan-6-yl)phenyl)-N-((S)-1-(2-chlorophenyl)-2-methylpropyl)-1H-indazole-5-carboxamide]
GI50 [1]: ≤ 100 nM
GI50 [2]: ≤ 100 nM
GI50 [3]: ≤ 100 nM
GI50 [4]: ≤ 100 nM
GI50 [5]: ≤ 100 nM

O=C(N[C@H](c1ccccn1)C1CCCC1)c1ccc2[nH]nc(-c3ccc(N4CC5(CCOCC5)C4)cc3)c2c1 [Example A19, (S)-3-(4-(7-Oxa-2-azaspiro[3.5]nonan-2-yl)phenyl)-N-(cyclopentyl(pyridin-2-yl)methyl)-1H-indazole-5-carboxamide]
GI50 [1]: ≤ 100 nM
GI50 [2]: ≤ 100 nM
GI50 [3]: ≤ 100 nM
GI50 [4]: ≤ 100 nM
GI50 [5]: 100 to 500 nM
